Experiment [1] deals with Escherichia coli. The experiment can be described thus: microbe, parasite or virus in culture.
Experiment [2] relates to Escherichia coli. The experiment can be described thus: microbe, parasite or virus in culture. This is another data set of the same source.
For experiment [3], the target named is Beta-2 adrenergic receptor (Homo sapiens, UniProt P07550). The experiment can be described thus: beta2AR agonists driving receptor internalization, dose response, cell-based, FAP fluorogen, flow cytometry, cherry pick 1 (AID 588763). Format: functional. A general note: A flow cytometer gives signals particle by particle.
The test system of experiment [4] is HEK293. Nature of the experiment: cells. The settings on record: Homo sapiens. Format: functional, cell-based.
Experiment [5] deals with T1, Nuclear receptor subfamily 0 group B member 1 (Homo sapiens, UniProt P51843).
T1 sequence (P51843 whole entry): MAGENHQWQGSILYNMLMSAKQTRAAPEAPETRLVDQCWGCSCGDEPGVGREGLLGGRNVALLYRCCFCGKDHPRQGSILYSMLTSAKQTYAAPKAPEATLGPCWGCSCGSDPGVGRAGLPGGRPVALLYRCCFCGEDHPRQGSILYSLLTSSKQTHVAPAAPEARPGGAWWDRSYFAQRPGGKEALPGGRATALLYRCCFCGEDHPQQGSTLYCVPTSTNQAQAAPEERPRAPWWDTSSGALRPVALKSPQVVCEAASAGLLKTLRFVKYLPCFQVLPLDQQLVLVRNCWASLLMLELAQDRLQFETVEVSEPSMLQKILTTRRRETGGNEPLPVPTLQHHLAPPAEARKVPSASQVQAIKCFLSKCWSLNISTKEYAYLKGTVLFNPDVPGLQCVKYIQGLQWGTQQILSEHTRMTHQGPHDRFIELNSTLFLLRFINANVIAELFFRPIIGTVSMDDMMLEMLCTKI
Nature of the experiment: Luminescence-based cell-based high throughput dose response assay for inhibitors of the orphan nuclear receptor subfamily 0, group B, member 1 (DAX1; NR0B1). [Related pubchem assays (depositor defined):AID504766, AID504790]. In kind it is functional.

Experiment [6] is described as follows: inhibitors of firefly luciferase expression or activity, dose response, H4 neuroglioma cells, luminescence (AID 1990). In kind it is functional, cell-based.
Experiment [7] is described as follows: Luminescence Cell-Based Dose Response HTS to Identify Inhibitors of 5'UTR Stem-Loop Driven Prion Protein mRNA Translation in H4 Neuroglioblastoma Cells. [Related pubchem assays: 1827 (Project Summary), 1813 (Primary HTS)]. In kind it is functional.
Experiment [8] is described as follows: inhibitors of SNCA 5'UTR-driven reporter translation, confirmation, H4 neuroglioma cells, luminescence (AID 1988). Format: functional, cell-based.
Experiment [9] has as its system BJ. Nature of the experiment: cytotoxicity toward Ras-transformed BJeLR fibroblasts, dose response, cell-based, alamar blue fluorescence, cherrypicked samples (AID 2631).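 Also: confirmatory dose-response assay in RAS-dependent BJ fibroblasts engineered with TERT, LT and ST, with cytotoxicity read by fluorescence.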 In kind it is functional. The settings on record: Homo sapiens. In general terms: The colour change of resazurin is a common sign of viable cells or microbes.
Experiment [10] concerns the target 5-hydroxytryptamine receptor 5A (Homo sapiens, UniProt P47898). Nature of the experiment: Counterscreen for agonists of OPRM1-OPRD1 heterodimerization: luminescence-based cell-based high throughput dose response assay to identify agonists of 5-hydroxytryptamine (serotonin) 5A receptor (HTR5A). [Related pubchem assays (depositor defined):AID504326, AID504355, AID504692, AID504904, AID504905]. Format: functional. A general note: Counterscreens check selectivity or assay interference.

In experiment [11] the target is Mu-type opioid receptor (Homo sapiens, UniProt P35372). The experiment can be described thus: Counterscreen for agonists of heterodimerization of the mu 1 (OPRM1) and delta 1 (OPRD1) opioid receptors: Luminescence-based cell-based high throughput dose response assay to identify agonists of OPRM1 homodimerization. In kind it is functional.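 Also: U2OS cells expressing OPRM1 and beta-arrestin as split beta-galactosidase partners.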
Experiment [12] deals with T2, Short transient receptor potential channel 4 (Mus musculus, UniProt Q9QUQ5).
T2 sequence (Q9QUQ5 whole entry): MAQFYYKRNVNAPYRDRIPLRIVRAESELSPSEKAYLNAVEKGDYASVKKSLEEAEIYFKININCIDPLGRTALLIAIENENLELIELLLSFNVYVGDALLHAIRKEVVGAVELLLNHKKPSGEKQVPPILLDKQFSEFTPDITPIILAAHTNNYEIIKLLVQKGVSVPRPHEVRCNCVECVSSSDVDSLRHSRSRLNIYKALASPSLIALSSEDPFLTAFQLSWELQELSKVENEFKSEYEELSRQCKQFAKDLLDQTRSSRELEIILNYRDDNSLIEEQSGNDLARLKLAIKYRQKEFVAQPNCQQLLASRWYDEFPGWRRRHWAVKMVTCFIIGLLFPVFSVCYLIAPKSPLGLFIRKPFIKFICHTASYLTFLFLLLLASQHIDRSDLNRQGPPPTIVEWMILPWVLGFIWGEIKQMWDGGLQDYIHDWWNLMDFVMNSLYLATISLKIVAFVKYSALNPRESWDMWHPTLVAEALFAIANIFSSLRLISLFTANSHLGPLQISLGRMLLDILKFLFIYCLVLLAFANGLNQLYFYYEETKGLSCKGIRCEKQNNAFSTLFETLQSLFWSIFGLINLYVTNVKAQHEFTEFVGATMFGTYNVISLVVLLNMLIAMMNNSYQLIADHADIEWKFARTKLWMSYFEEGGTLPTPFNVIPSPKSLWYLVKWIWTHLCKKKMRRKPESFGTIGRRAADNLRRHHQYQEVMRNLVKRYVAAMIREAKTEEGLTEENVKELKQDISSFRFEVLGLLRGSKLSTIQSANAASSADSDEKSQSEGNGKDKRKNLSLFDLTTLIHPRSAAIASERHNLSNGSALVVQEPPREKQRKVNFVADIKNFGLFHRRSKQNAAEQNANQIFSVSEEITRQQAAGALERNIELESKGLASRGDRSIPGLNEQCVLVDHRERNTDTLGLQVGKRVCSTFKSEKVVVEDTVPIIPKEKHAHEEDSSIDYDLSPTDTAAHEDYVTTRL
The experiment can be described thus: mouse TRPC4 channel activators, dose response, cell-based, HEK293 TRPC4/mu-opioid, Fluo-4 calcium (AID 434937). Format: functional.

For experiment [13], the target named is Delta-type opioid receptor (Homo sapiens, UniProt P41143). The experiment can be described thus: Counterscreen for agonists of heterodimerization of the mu 1 (OPRM1) and delta 1 (OPRD1) opioid receptors: Luminescence-based cell-based high throughput dose response assay to identify agonists of OPRD1 homodimerization. [Related pubchem assays (depositor defined):AID504326, AID504355, AID504692, AID504904, AID504905]. Format: functional.

The nature of experiment [14]: cytotoxicity toward NIH3T3 fibroblasts, dose response, counter-screen, cell-based, ATP luminescence, mouse fibroblasts (AID 2010).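 Also: cells exposed to compound for about 90 hours before reading.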 In kind it is functional.
The nature of experiment [15]: inhibitors of intracellular T. cruzi replication, confirmation, NIH3T3 host cells, beta-gal luminescence (AID 2044).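 Also: intracellular parasites grown in NIH/3T3 mouse fibroblasts as host cells; luminescent beta-galactosidase reporter signal from transgenic T. cruzi replicating inside host cells; inhibitors lower the luminescence signal.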 In kind it is functional, cell-based.
Experiment [16] can be described thus: C. albicans growth with fluconazole, confirmation, fluorescence, retest (AID 2467). In kind it is functional, cell-based.
The target in experiment [17] is Ion channel NompC (Danio rerio, UniProt Q7T1G6). The experiment can be described thus: Fluorescence counterscreen assay for TRPML3 agonists: dose response cell-based high-throughput screening assay to identify agonists of the transient receptor potential channel N1 (TRPN1). [Related pubchem assays: 1526, 1424, 1448 ]. In kind it is functional.
Experiment [18] concerns the target T3, Mucolipin-3 (Homo sapiens, UniProt Q8TDD5).
T3 sequence (Q8TDD5 whole entry): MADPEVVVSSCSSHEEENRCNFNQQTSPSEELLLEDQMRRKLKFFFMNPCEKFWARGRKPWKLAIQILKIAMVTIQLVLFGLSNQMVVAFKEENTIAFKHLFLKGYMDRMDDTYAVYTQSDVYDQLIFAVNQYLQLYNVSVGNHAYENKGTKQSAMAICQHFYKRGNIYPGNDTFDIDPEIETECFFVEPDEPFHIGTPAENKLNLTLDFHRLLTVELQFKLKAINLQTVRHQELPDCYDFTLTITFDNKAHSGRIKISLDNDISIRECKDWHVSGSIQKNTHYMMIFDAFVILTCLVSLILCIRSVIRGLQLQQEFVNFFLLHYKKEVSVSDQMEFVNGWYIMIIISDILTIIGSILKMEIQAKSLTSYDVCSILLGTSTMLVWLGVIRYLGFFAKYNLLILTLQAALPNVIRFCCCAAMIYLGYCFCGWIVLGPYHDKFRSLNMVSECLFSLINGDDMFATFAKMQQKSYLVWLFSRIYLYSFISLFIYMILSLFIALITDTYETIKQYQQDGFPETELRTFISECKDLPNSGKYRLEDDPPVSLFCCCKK
Nature of the experiment: Dose response cell-based high-throughput screening assay for agonists of the transient receptor potential channel ML3 (TRPML3). [Related pubchem assays: 1526, 1424, 1448 ]. Format: functional.

Experiment [19] can be described thus: NIH-3T3 fibroblast cytotoxicity, dose response, cytotoxicity control, cell-based, fluorescence, Alamar Blue, secondary assay (AID 2327).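 Also: NIH-3T3 mouse fibroblasts cultured with fluconazole at 8 µg/mL.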 Format: functional.
Experiment [20] addresses ATP-dependent molecular chaperone HSP82 (Candida albicans (strain WO-1) (Yeast), UniProt C4YTQ8). The experiment can be described thus: loss of DOC-induced GRE-beta-galactosidase reporter signal, dose response, Hsp90 inhibitor project, S. cerevisiae, luminescence (AID 2400).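 Also: beta-galactosidase luminescence from glucocorticoid response element reporter as proxy for Hsp90 function; inhibitor potency where signal loss means Hsp90 inhibition.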 In kind it is functional, cell-based.
For experiment [21], the target named is Serine/threonine-protein phosphatase (Candida dubliniensis (strain CD36 / CBS 7987 / NCPF 3949 / NRRLY-17841) (Yeast), UniProt B9W6M3). Nature of the experiment: calcineurin pathway inhibitors in yeast reporter, dose response, S. cerevisiae, CDRE-lacZ, luminescence, secondary (AID 2388).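 Also: yeast reporter cells carrying a calcineurin-responsive lacZ construct stimulated with calcium chloride; luminescent beta-galactosidase reporter signal in whole cells rather than isolated phosphatase activity; potency for inhibition where a drop in reporter signal means calcineurin blockade.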 Format: functional, cell-based.
Experiment [22] addresses T4, CAAX prenyl protease 2 (Saccharomyces cerevisiae S288c, UniProt Q03530).
T4 sequence (Q03530 whole entry): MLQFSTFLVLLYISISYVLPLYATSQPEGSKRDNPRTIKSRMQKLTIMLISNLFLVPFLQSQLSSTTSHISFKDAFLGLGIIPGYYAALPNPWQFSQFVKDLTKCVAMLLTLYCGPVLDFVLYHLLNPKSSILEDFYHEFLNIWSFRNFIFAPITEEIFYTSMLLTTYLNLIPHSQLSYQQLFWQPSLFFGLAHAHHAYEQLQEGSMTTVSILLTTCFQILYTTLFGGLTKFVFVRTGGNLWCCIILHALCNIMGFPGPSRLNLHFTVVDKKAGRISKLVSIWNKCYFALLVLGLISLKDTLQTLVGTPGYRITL
Format: biochemical.

Experiment [23] addresses FAD-linked sulfhydryl oxidase ALR (Homo sapiens, UniProt P55789). The experiment can be described thus: inhibitors of human ALR sulfhydryl oxidase, dose response, biochemical, H2O2 detection, luminescence, cherry-pick (AID 493248).
In experiment [24] the target is CAAX prenyl protease 2 (Homo sapiens, UniProt Q9Y256). Nature of the experiment: human Rce1 protease inhibitors, dose response, biochemical, yeast membranes, quenched-peptide fluorescence, cherry-pick (AID 588849).
Experiment [25] deals with CAAX prenyl protease 1 (Saccharomyces cerevisiae S288c, UniProt P47154). The experiment can be described thus: Ste24 protease inhibitors, dose response, biochemical, S. cerevisiae, plate reader, cherry-pick (AID 488815).

As usually defined, the AC50 is the midpoint of the concentration-response curve, whichever way the signal moves. What is called EC50 is the midpoint of the concentration-response curve. Usually IC50 stands for the concentration that gives 50% inhibition.

The structures appear in SMILES notation. Calls of active or inactive are those of the source.

Chain of Mu-type opioid receptor (P35372 whole entry): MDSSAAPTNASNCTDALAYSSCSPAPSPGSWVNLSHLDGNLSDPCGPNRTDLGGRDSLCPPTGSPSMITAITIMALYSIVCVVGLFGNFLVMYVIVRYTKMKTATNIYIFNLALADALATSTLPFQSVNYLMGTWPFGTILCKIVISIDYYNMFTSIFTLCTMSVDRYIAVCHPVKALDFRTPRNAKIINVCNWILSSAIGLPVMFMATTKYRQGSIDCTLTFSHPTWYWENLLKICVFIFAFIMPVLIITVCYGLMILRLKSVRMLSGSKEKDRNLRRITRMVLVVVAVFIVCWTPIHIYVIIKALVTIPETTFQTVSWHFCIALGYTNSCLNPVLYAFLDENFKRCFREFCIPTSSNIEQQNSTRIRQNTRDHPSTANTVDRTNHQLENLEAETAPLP
Chain of Beta-2 adrenergic receptor (P07550 whole entry): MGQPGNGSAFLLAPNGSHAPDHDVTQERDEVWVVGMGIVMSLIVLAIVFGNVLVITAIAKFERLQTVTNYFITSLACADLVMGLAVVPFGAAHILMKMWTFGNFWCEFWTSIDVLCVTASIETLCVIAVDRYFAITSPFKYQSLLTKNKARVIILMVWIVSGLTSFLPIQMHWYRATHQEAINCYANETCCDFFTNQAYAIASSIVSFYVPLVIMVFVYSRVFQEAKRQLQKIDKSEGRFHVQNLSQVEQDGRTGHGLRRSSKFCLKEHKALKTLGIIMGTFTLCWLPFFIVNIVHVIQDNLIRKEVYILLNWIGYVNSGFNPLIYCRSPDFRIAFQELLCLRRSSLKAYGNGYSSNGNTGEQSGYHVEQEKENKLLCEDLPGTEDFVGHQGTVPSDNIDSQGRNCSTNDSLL
Chain of 5-hydroxytryptamine receptor 5A (P47898 whole entry): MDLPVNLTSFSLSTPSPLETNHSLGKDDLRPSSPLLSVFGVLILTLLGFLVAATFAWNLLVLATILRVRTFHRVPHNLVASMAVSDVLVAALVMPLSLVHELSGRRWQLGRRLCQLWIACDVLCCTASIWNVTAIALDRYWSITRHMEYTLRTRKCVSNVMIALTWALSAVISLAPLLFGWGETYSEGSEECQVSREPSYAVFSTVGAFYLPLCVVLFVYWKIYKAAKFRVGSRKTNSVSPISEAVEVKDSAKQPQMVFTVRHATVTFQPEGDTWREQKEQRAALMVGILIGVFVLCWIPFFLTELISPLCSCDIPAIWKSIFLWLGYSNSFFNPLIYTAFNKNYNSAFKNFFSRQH
Chain of Delta-type opioid receptor (P41143 whole entry): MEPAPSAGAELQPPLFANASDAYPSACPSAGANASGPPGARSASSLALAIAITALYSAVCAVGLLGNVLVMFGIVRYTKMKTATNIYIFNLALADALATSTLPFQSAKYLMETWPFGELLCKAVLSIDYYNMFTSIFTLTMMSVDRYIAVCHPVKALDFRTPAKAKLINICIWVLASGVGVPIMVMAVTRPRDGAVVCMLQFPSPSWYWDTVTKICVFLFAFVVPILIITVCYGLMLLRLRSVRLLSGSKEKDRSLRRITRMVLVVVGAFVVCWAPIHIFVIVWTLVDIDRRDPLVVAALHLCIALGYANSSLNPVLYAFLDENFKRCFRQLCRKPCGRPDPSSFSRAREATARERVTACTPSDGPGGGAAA
Chain of Serine/threonine-protein phosphatase (B9W6M3 whole entry): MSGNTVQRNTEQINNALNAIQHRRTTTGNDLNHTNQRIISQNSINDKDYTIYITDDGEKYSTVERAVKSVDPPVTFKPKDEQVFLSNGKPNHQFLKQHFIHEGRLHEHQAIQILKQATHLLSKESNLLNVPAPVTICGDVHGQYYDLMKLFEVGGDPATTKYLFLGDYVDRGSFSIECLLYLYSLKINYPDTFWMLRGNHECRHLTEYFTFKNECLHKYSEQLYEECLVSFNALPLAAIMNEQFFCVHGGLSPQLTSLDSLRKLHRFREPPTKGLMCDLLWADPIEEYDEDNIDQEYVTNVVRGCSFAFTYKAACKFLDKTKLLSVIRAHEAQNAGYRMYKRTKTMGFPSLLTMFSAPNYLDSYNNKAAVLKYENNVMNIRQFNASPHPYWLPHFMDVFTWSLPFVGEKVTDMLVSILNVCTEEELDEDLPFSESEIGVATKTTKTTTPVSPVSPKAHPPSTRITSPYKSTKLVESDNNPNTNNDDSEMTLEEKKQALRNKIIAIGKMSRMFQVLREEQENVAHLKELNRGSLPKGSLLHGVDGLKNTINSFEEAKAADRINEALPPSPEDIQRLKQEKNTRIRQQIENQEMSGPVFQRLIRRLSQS
Chain of Ion channel NompC (Q7T1G6 whole entry): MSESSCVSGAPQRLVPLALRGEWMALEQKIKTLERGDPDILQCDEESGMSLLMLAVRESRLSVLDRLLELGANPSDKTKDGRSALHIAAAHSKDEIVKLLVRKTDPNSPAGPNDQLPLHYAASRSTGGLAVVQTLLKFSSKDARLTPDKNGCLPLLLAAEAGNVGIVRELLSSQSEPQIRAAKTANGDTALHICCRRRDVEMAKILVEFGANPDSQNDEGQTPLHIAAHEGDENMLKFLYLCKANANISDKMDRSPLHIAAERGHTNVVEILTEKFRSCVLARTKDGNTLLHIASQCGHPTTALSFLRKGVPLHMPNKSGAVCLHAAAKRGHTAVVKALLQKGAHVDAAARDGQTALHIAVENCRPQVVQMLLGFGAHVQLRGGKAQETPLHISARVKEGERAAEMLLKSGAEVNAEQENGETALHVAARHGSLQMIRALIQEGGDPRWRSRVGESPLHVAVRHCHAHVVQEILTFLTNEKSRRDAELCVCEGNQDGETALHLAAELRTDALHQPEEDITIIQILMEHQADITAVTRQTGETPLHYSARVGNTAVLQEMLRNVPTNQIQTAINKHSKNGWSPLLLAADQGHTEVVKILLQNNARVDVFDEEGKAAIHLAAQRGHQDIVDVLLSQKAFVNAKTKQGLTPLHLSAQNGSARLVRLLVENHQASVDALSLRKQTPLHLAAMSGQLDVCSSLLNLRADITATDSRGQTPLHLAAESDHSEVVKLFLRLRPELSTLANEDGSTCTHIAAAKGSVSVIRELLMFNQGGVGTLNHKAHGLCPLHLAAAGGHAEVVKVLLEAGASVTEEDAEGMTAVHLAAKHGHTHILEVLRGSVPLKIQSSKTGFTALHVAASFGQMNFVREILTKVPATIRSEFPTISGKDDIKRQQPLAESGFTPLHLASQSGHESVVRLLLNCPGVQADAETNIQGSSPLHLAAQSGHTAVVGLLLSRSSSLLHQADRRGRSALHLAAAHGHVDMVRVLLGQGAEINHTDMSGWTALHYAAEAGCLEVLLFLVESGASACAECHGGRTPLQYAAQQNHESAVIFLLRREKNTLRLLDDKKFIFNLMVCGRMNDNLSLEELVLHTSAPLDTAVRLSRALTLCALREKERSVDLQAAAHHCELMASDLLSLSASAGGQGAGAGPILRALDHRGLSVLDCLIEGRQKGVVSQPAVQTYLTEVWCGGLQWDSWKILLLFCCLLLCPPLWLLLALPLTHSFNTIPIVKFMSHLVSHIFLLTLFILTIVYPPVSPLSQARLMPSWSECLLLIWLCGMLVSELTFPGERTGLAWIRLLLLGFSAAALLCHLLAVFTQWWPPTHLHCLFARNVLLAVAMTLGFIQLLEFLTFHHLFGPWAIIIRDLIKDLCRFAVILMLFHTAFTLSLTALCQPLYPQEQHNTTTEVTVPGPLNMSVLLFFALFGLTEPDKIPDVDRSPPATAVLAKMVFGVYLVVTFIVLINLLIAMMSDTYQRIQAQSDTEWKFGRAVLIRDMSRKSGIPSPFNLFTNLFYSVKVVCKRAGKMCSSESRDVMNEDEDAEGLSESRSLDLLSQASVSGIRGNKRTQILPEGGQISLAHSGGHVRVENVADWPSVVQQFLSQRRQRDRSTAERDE
Chain of CAAX prenyl protease 2 (Homo sapiens, UniProt Q9Y256) (Q9Y256 whole entry): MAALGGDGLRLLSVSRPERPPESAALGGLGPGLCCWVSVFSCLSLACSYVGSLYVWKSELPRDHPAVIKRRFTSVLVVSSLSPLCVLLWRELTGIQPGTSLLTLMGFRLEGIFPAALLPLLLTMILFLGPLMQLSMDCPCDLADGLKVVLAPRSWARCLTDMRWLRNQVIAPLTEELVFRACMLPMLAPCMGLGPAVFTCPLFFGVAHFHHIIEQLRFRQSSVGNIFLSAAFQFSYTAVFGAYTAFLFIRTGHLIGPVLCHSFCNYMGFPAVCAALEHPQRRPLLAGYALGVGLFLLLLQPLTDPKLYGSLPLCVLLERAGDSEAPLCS
Chain of ATP-dependent molecular chaperone HSP82 (C4YTQ8 whole entry): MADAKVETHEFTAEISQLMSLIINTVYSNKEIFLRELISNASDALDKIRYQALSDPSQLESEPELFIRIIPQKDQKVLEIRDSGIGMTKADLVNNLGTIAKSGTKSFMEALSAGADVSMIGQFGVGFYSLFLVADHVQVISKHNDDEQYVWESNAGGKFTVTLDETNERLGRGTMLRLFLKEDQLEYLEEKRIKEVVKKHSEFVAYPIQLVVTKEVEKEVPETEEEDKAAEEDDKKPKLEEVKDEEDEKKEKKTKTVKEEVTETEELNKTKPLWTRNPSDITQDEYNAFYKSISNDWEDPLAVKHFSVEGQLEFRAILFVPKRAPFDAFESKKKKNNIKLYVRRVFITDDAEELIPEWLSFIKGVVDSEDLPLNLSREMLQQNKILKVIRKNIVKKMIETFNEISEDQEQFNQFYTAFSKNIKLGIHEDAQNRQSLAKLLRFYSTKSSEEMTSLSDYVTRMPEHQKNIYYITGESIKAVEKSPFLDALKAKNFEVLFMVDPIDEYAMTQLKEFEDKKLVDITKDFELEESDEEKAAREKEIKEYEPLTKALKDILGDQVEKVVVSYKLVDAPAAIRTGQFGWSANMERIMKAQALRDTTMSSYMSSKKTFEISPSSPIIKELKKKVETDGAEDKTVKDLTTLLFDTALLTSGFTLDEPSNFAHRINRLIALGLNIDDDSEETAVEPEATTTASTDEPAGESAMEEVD
Chain of FAD-linked sulfhydryl oxidase ALR (P55789 whole entry): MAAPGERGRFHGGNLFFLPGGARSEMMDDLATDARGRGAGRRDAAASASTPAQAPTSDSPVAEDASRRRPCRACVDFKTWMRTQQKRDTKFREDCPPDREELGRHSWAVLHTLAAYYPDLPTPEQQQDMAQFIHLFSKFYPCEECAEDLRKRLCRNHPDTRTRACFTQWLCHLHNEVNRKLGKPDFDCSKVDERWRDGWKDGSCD

`Cc1nc(NS(=O)(=O)c2ccccc2)sc1NC(=O)Nc1ccc(Cl)cc1`: the figures for the AC50 in experiment [1] and in [2] were > 380 µM (inactive) and 27 µM (active), respectively.

Consider `NC(=O)CC(NC(=O)c1ccccc1)c1ccc(NCCCN2CCCC2=O)c([N+](=O)[O-])c1` (configuration not stated), for which the concentration giving a half-maximal response (EC50) in experiment [3] was 1.4 µM (active).

As to `Clc1ccccc1Nc1nc(-c2cccnc2)cs1`, the IC50 in [4] and in experiment [5] was > 67.5 µM (inactive) each time.

As to `COc1cccc(Cn2c(-c3nonc3N)nc3ccccc32)c1`, the EC50 is 9.54 µM (active) in [6], 24.7 µM (active) in experiment [7], 2.69 µM (active) in experiment [8] and 0.455 µM (active) in [9].

For the compound `COCC1CCN(Cc2cn(-c3ccccc3F)nc2-c2cc(C)sc2C)CC1`, the EC50 in experiment [10] is > 92.5 µM (inactive); in [11] it was > 92.5 µM (inactive); in experiment [12], 1.88 µM (active); in [13], > 92.5 µM (inactive).

With `Cc1cc(Cl)c2oc(C(=O)N3CCN(c4ccncc4)CC3)c(C)c2c1`, the EC50 was 7.17 µM (active) in experiment [14], 86.2 µM (inactive) in experiment [3] and 1.28 µM (active) in experiment [15].

On to `Cc1ccc(S(=O)(=O)N(C)c2ccc(OCC(=O)Nc3nnc(C4CC4)s3)cc2)cc1`, for which the EC50 is 3.05 µM (active) in [16]; > 29.9 µM (not active) in experiment [17]; 4.38 µM (active) in experiment [18]; > 150 µM (inactive) in [19]; > 150 µM (inactive) in experiment [20]; > 180 µM (inactive) in experiment [21].

As for `COc1cc(C(=O)NC2CCN(C)CC2)ccc1Nc1ncc2c(n1)N(Cc1ccccc1)CCC(=O)N2C`, the IC50 in experiment [4] and in [5] was > 67.5 µM (inactive) each time.

Consider `COc1ccc(/C=N/NC(=O)c2[nH]c3ccc(C)cc3c2-c2ccccc2)c(C(=O)O)c1OC`, for which the half-maximal activity concentration (AC50) in experiment [22] is 5.21 µM (active); in experiment [23], 3.71 µM (active); in experiment [24], 3.14 µM (active); in experiment [25], 1.76 µM (active).

`O=C1CN2C(=Nc3ccc(Br)cc3C2c2ccccc2)CCN1` (configuration not stated): the half-maximal activity concentration (AC50) in [1] is 81.5 µM (active).

Regarding `CCOC(=O)c1c(C)[nH]c(C(=O)OCC(O)=C(C#N)c2nc3ccccc3[nH]2)c1C`, the EC50 in [10], in experiment [11] and in [13] was > 92.5 µM (inactive) throughout.

(Values after ChEMBL document CHEMBL1201862, “PubChem BioAssay data set” (2004).)
